From patent publication EP0003415A2, “Beta-Lactam compounds, processes for their preparation,compositions containing them and intermediates of use in their preparation” (GLAXO GROUP LIMITED, priority 1978, dated 1979)
≈ marks a conversion by molar mass, not a printed value.

Assays:
Experiment in all cases: Determination of Minimum Inhibitory Concentrations (MIC), agar dilution
Assay type in all cases: cell-based
E. cloacae 1051E = conditions: Enterobacter cloacae, clinical isolate, Oxoid No.1 Nutrient agar, approximately 10^5 colony forming units, read after 18 hours at 37°C
Source text: (§1) Biological testing of two of the compounds of the invention has provided the results shown below; the test compounds are identified by their Example Numbers: 1. Determination of Minimum Inhibitory Concentrations (MIC) Serial two-fold dilutions of freshly prepared test solutions were made into Oxoid No.l Nutrient agar with or without added enrichment and poured into petri […] Plates were inoculated with a multipoint inoculator with inoculum containing approximately 10^5 colony forming units of the organisms shown in the following Tables, all of which organisms are clinical isolates. The MIC, quoted in the Table as μg/ml, was read after 18 hours incubation at 37°C as the lowest concentration which inhibited growth.

E. cloacae 1321E = conditions: Enterobacter cloacae, clinical isolate, Oxoid No.1 Nutrient agar, approximately 10^5 colony forming units, read after 18 hours at 37°C
Source text: as §1

E. coli 851E = conditions: Escherichia coli, clinical isolate, Oxoid No.1 Nutrient agar, approximately 10^5 colony forming units, read after 18 hours at 37°C
Source text: as §1

H. influenzae 1184E = conditions: Haemophilus influenzae, clinical isolate, Oxoid No.1 Nutrient agar, approximately 10^5 colony forming units, read after 18 hours at 37°C
Source text: as §1

K. aerogenes 1522E = conditions: Klebsiella aerogenes, clinical isolate, Oxoid No.1 Nutrient agar, approximately 10^5 colony forming units, read after 18 hours at 37°C
Source text: as §1

Micrococcus Sp 1810E = conditions: SP1810E, clinical isolate, Oxoid No.1 Nutrient agar, approximately 10^5 colony forming units, read after 18 hours at 37°C
Source text: as §1

S. marcescens 1324E = conditions: Serratia marcescens, clinical isolate, Oxoid No.1 Nutrient agar, approximately 10^5 colony forming units, read after 18 hours at 37°C
Source text: as §1

Staph.aureus 853E = conditions: Staphylococcus aureus, clinical isolate, Oxoid No.1 Nutrient agar, approximately 10^5 colony forming units, read after 18 hours at 37°C
Source text: as §1

Row | MIC (E. cloacae 1051E) [µg/mL] | MIC (E. cloacae 1321E) [µg/mL] | MIC (E. coli 851E) [µg/mL] | MIC (H. influenzae 1184E) [µg/mL] | MIC (K. aerogenes 1522E) [µg/mL] | MIC (Micrococcus Sp 1810E) [µg/mL] | MIC (S. marcescens 1324E) [µg/mL] | MIC (Staph.aureus 853E) [µg/mL] | Compound
1 | 8 (≈ 37.3 µM) | 8 (≈ 37.3 µM) | 8 (≈ 37.3 µM) | 62 (≈ 289 µM) | 16 (≈ 74.7 µM) | 0.2 (≈ 0.934 µM) | 31 (≈ 145 µM) | 1 (≈ 4.67 µM) | NCCC1=C(C(=O)O)N2C(=O)CC2S1 (racemic) [Example 4, (5RS)-2-(2-Aminoethyl)pen-2-em-3-carboxylic acid]
2 | 16 (≈ 70.1 µM) | 8 (≈ 35 µM) | 8 (≈ 35 µM) | 16 (≈ 70.1 µM) | 16 (≈ 70.1 µM) | 0.1 (≈ 0.438 µM) | 31 (≈ 136 µM) | 0.5 (≈ 2.19 µM) | NCCCC1=C(C(=O)O)N2C(=O)CC2S1 (racemic) [Example 19, (5RS)-2-[3-Aminopropyl]-pen-2-em-3-carboxylate]
